EC50 data for 2 molecules are collected here from PMC12577307, “Genetically encoded biosensor enabled mining, characterisation and engineering of aromatic acid MFS transporters” (Journal of Biological Engineering, 2025).

Each structure is given as a SMILES string.

One assay relates to T1, TphKP.Um.
T1 construct: gene tphK; full-length transporter expressed in Pseudomonas putida KT2440 with TphR-sfGFP reporter plasmid
The assay is described as follows: uptake-coupled TphR-sfGFP biosensor dose response in P. putida KT2440. Type of assay: cell-based, Pseudomonas umsongensis. Conditions: whole-cell transporter-biosensor EC50 (reflects transporter plus TphR sensor); LB, 16 h, 0.005-1 mM TPA. The source says:
uptake-coupled TphR-sfGFP biosensor dose response in P. putida KT2440 on TphKP.Um

Another assay concerns the target T2, TphKP.Man (Pseudomonas mandelii, UniProt A0A024E7Y9).
T2 construct: gene tpaK; full-length transporter expressed in Pseudomonas putida KT2440 with TphR-sfGFP reporter plasmid
Described as above. Type of assay: cell-based. The source says:
uptake-coupled TphR-sfGFP biosensor dose response in P. putida KT2440 on TphKP.Man

The test system of a further assay is T3, TphKS.Nap.
T3 construct: gene tphK; full-length transporter expressed in Pseudomonas putida KT2440 with TphR-sfGFP reporter plasmid
Described as above. As to conditions: whole-cell transporter-biosensor EC50 (reflects transporter plus TphR sensor); LB, 16 h, 0.005-1 mM TPA. It is filed as cell-based, Sphingobium naphthae. The source says: uptake-coupled TphR-sfGFP biosensor dose response in P. putida KT2440 on TphKS.Nap

The subject of a further assay is T4, TphKB.Pac.
T4 construct: gene tphK; full-length transporter expressed in Pseudomonas putida KT2440 with TphR-sfGFP reporter plasmid
The description is as above. Type of assay: cell-based, Bradyrhizobium pachyrhizi. As to conditions: whole-cell transporter-biosensor EC50 (reflects transporter plus TphR sensor); LB, 16 h, 0.005-1 mM TPA. The source says:
uptake-coupled TphR-sfGFP biosensor dose response in P. putida KT2440 on TphKB.Pac

In the next assay the test system is T5, TphKS.Hor.
T5 construct: gene tphK; full-length transporter expressed in Pseudomonas putida KT2440 with TphR-sfGFP reporter plasmid
The assay is described as above. Conditions: whole-cell transporter-biosensor EC50 (reflects transporter plus TphR sensor); LB, 16 h, 0.005-1 mM TPA. It is filed as cell-based, Saccharopolyspora hordei. The source says:
uptake-coupled TphR-sfGFP biosensor dose response in P. putida KT2440 on TphKS.Hor

A further assay deals with T6, TphKR.Pyr.
T6 construct: gene tphK; full-length transporter expressed in Pseudomonas putida KT2440 with TphR-sfGFP reporter plasmid
The assay is described as above. Type of assay: cell-based, Rhodococcus pyridinivorans. As to conditions: whole-cell transporter-biosensor EC50 (reflects transporter plus TphR sensor); LB, 16 h, 0.005-1 mM TPA. The source says:
uptake-coupled TphR-sfGFP biosensor dose response in P. putida KT2440 on TphKR.Pyr

For another assay, the target named is T7, TphKR.Op (Rhodococcus opacus, UniProt A0A1B1KG70).
T7 construct: gene tpaK; full-length transporter expressed in Pseudomonas putida KT2440 with TphR-sfGFP reporter plasmid
T7 sequence (A0A1B1KG70 1-459): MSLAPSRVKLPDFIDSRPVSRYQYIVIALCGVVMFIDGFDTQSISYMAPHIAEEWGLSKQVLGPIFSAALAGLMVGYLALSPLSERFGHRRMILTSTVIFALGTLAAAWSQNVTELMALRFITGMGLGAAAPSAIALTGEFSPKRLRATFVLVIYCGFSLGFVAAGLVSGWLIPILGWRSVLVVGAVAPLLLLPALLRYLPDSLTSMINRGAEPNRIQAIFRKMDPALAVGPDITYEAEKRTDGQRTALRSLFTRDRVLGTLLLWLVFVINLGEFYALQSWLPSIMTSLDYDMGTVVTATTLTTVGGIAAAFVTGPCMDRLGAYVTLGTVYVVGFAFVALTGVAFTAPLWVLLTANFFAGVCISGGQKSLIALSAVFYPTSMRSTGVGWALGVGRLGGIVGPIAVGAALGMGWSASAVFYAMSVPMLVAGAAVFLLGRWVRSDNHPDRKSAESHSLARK
The description is as above. It is filed as cell-based. The text has this:
uptake-coupled TphR-sfGFP biosensor dose response in P. putida KT2440 on TphKR.Op

In another assay the target is T8, PcaKN.Ani (Neisseria animalis, UniProt A0A5P3MSQ9).
T8 construct: gene D0T90_09335; full-length transporter expressed in Pseudomonas putida KT2440 delta-pcaK with PcaV-sfGFP reporter plasmid; 4,5-cleavage pathway operon
T8 sequence (A0A5P3MSQ9 entry or part of it): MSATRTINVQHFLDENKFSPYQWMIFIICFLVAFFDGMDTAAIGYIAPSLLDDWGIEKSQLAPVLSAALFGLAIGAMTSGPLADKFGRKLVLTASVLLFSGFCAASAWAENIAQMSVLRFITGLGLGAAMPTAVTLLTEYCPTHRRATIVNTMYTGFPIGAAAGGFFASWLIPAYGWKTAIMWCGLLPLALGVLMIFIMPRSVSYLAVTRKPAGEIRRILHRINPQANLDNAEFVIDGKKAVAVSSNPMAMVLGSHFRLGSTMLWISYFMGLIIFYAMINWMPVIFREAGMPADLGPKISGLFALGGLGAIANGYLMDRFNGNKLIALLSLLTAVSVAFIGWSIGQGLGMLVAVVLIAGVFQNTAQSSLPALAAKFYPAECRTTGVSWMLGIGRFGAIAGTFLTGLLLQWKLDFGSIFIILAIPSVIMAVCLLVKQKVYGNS
The assay is described as follows: uptake-coupled PcaV-sfGFP biosensor dose response in P. putida KT2440 delta-pcaK. Type of assay: cell-based. The text has this: uptake-coupled PcaV-sfGFP biosensor dose response in P. putida KT2440 delta-pcaK on PcaKN.Ani

For the next assay, the system named is T9, PcaKB.Mas.
T9 construct: gene pcaK; full-length transporter expressed in Pseudomonas putida KT2440 delta-pcaK with PcaV-sfGFP reporter plasmid; 2,3-cleavage pathway operon
The description is as above. Type of assay: cell-based, Bacillus massiliglaciei. As to conditions: whole-cell transporter-biosensor EC50 (reflects transporter plus PcaV sensor); LB, 3 h, 0.01-5 mM PCA. The source says:
uptake-coupled PcaV-sfGFP biosensor dose response in P. putida KT2440 delta-pcaK on PcaKB.Mas

For another assay, the target named is T10, PcakA.Ant (Comamonas antarctica, UniProt A0A6N1X255).
T10 construct: gene HUK68_11000; full-length transporter expressed in Pseudomonas putida KT2440 delta-pcaK with PcaV-sfGFP reporter plasmid; 4,5-cleavage pathway operon
T10 sequence (A0A6N1X255 1-458): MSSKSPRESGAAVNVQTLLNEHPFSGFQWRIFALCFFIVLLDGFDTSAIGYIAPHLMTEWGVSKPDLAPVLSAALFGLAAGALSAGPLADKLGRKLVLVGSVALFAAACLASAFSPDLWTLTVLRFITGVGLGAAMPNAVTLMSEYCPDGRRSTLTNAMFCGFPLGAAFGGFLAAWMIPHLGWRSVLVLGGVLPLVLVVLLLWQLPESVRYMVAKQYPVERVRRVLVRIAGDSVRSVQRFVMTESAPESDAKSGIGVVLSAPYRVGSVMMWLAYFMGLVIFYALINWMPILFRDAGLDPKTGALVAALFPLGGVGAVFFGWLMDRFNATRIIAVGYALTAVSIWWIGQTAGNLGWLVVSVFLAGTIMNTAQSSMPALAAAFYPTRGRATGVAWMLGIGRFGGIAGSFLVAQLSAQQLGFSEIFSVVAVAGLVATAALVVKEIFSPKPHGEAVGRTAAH
The assay is described as above. It is filed as cell-based. The source says:
uptake-coupled PcaV-sfGFP biosensor dose response in P. putida KT2440 delta-pcaK on PcakA.Ant

A further assay addresses T11, PcaKP.Put (Pseudomonas putida, UniProt Q51955).
T11 construct: gene pcaK; full-length transporter expressed in Pseudomonas putida KT2440 delta-pcaK with PcaV-sfGFP reporter plasmid
T11 sequence (Q51955 1-448): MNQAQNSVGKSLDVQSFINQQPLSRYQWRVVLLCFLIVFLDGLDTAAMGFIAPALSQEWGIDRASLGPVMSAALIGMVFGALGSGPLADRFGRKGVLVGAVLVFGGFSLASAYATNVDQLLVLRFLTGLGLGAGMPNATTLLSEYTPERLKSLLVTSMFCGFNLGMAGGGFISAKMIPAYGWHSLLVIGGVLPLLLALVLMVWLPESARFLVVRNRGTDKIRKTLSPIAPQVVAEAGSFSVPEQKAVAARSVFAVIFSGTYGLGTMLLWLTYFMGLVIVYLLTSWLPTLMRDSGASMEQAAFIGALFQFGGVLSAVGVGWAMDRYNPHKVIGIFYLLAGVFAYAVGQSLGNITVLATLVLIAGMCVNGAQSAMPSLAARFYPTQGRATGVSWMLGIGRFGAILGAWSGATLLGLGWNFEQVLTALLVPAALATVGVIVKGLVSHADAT
Described as above. Type of assay: cell-based. The source says: uptake-coupled PcaV-sfGFP biosensor dose response in P. putida KT2440 delta-pcaK on PcaKP.Put

The term EC50 denotes the concentration that produces a half-maximal response. As for `O=C(O)c1ccc(C(=O)O)cc1` [T3, terephthalic acid], the concentration for a half-maximal effect (EC50) in the assay on TphKP.Um stood at 19.1 µM; at TphKP.Man it was 14.4 µM; in the assay with TphKS.Nap it was 1.96 µM; in the assay with TphKB.Pac it was 17.1 µM; in the assay with TphKS.Hor, 39.6 µM; in the assay with TphKR.Pyr, 10.7 µM. This molecule also registered an EC50 on TphKR.Op of 79.2 µM.
With `O=C(O)c1ccc(O)c(O)c1` [P2, protocatechuic acid], the 50% effective concentration (EC50) at PcaKN.Ani was 847 µM; in the assay with PcaKB.Mas it was 1710 µM; at PcakA.Ant, 735 µM; at PcaKP.Put it was 2050 µM.
